# Results from patent US6827926B2, “Metallotetrapyrrolic photosensitizing agents for use in photodynamic therapy” (Miravant Pharmaceuticals, Inc., priority 2001, dated 2004).
# pEC50: −log10 of the molar value. Read-outs that look alike come from different tables or passages of the source.
# Key:
# [1] = test system: V79 (Chinese Hamster Lung Fibroblasts) cells; assay: In vitro cytotoxicity assay (light EC50, Alamar blue); assay type: cell-based
# Description: The in vitro biological evaluation of photosensitizers for their ability to photosensitize cells was performed using standard procedures. Using 5% FBS/DMEM phenol-free media, wells (180 μl/well) were plated with 5×10^4 V79 (Chinese Hamster Lung Fibroblasts) cells/ml into two 96 well plates. Plate 1 was light-treated and plate 2 served as a control. The plates were Incubated at 37° C., 5% CO2 for 3-5 hours. Standard solutions of the photosensitizers were dissolved in pre-filtered Dimethyl Sulfoxide (DMSO). Drug was diluted in 5% FBS DMEM phenol free medium. Final drug concentrations for light and dark experiments were 0.01, 0.1, 1.0, 3.0 and 5.0 μM. Twenty microliters of each concentration were added to six replicate wells to the light and dark plate. The plates were wrapped in aluminum foil to avoid photoactivation and mixed in a gyratory shaker for approximately 2 minutes. Both plates were incubated for 24 hours at 37° C., 5% CO2. After a 24 hour incubation, drug-containing media was aspirated from the plates. Each well was rinsed with 180 μl Hepes buffer salt solution (HBSS) then aspirated to remove the HBSS. 180 μl of fresh media were added (5% FBS/DMEM phenol-free) to each well. […] Plate 2 was not light treated. Immediately after light treatment, 20 μl Alamar blue was added to each well in plate 1. Alamar blue was added to plate 2 immediately after fresh media was added. The plates were mixed on a gyratory shaker for 5 min.
# Both plates were incubated under dark conditions for 24 hours at 37° C., 5% CO2. After 24 hour incubation, the plates were read on a plate reader spectrophotometer (Spectra Max 250) at wavelengths 570 and 600 nm. and the percentage of cell survival recorded.
# [2] = test system: normal uninjured rat carotid arteries (medial and adventitial cell populations); assay: In vivo rat carotid artery acellularity after PDT; set-up: species or system Sprague Dawley rats; conditions: for Max % rat Artery Accelularity: Table 3, 50 J/cm^2, 3 days post treatment; for efficacy of free base porphyrins in the arterial rat model: at the time point, drug and light dose parameters used
# Description: The acute effects of metallated photosensitizers, in response to light activation, to cause depletion of cell populations in the medial and adventitial layers of vessels was measured in normal uninjured rat carotid arteries. […] Shortly before the light treatment, the rats were anaesthetized with 3.5% isoflurane (Abbott Laboratories, IL, USA) and the femoral region of the right leg was shaved and cleaned. […] A direct arteriotomy was performed and a light balloon catheter ([…] Medical Technologies, Inc) was introduced into the vessel and advanced retrogradely into a non-manipulated region of the left common carotid artery via the abdominal aorta. […] After light treatment and removal of the catheter, the right femoral artery was tied off and the skin wound was closed. Rats were sacrificed three days post treatment as this corresponds to the known peak time that vascular cells, e.g., VSMC and myofibroblasts, proliferate and migrate in response to an injury. The area spanning both left and right carotid arteries and surrounding tissue was harvested, fixed, embedded in paraffin and sectioned. The tissues were stained with Hematoxylin and Eosin (Fisher Scientific, PA) and examined by light microscopy to histologically assess the cell population density in the medial and adventitial layers of the PDT-treated vessel wall. […] Metallo azaporphyrins with Ga, Zn, Al, Sn were excited at 575 nm, while Pt azaporphyrins were excited at 532 nm.
# [3] = Table 3 porphyrins, 24 h drug incubation, 532 nm, 1.25 J/cm^2, read-out: In Vitro EC50 Light
# [4] = Table 4 azaporphyrins, 575 nm (Pt azaporphyrins 532 nm), 1.25 J/cm^2, read-out: In Vitro EC(50)
# [5] = light EC50, metallodiazaporphyrins, read-out: In Vitro EC(50)
Compound,"pEC50 [1, 3]",Max % rat Artery Accelularity ([2]; drug dose 1 μMol) [%],also measured
"CCOC(=O)CCCCC1=C(C)c2cc3[nH]c(cc4nc(cc5[nH]c(cc1n2)c(CCCCC(=O)OCC)c5C)C(C)=C4CC)c(C)c3CC.[Pt] [Example 53, Platinum 8,13-diethyl-3,7,12,17-tetramethylporphyrin-2,18-di(pentanoic acid ethyl ester)]",7.00,20,
"CCC1=C(C)C2=[N+]3C1=Cc1c(C)c(CC)c4[n]1[Al-2]31([Cl])[n]3c(c(C)c(CCCO)c3=CC3=[N+]1C(=C4)C(C)=C3CCCO)=C2 [Example 73, Aluminum Chloride 8,13-diethyl-3,7,12,17-tetramethylporphyrin-2,18-di(3′-hydroxypropyl)]",5.44,0,
"CCC1=C(CC)C2=Nc3c(CC)c(CC)c4[n]3[In]([Cl])[n]3c(c(C)c(CCCO)c3=CC3=NC(=C4)C(C)=C3CCCO)=CC1=N2 [Example 104, Indium Chloride 7,8,12,13-tetraethyl-12,17-dimethyl-10-azaporphyrin-2,18-di(3′-hyroxypropyl)]",,,"pEC50 [1, 4]: 7.52"
"CCC1=C(CC)C2=Nc3c(CC)c(CC)c4[n]3[Pt][n]3c(c(C)c(CCCO)c3=CC3=NC(=C4)C(C)=C3CCCO)=CC1=N2 [Example 105, Platinum 7,8,12,13-tetraethyl-12,17-dimethyl-10-azaporphyrin-2,18-di(3′-hyroxypropyl)]",,,"pEC50 [1, 4]: 7.40"
"CCC1=C(CC)c2nc1cc1[n-]c(cc3nc(cc4[n-]c(n2)c(CC)c4CC)C(C)=C3CCCOC)c(CCCOC)c1C.[Cl-].[Ga+3] [Example 106, Gallium Chloride 7,8,12,13-tetraethyl-12,17-dimethyl-10-azaporphyrin-2,18-di(3′-methoxypropyl)]",,,"pEC50 [1, 4]: 6.00"
"CCC1=C(C)c2cc3[n-]c(cc4nc(cc5[n-]c(cc1n2)c(C)c5CC)C(C)=C4CCC(=O)[O-])c(CCC(=O)[O-])c3C.[In+3].[Na+].[Na+].[OH-] [Example 110, Indium Hydroxy Mesoporphyrin Disodium Salt]",6.00,0,
"CCC1=C(C)C2=Cc3c(CC)c(C)c4[n]3[Pt][n]3c(c(C)c(CCC(=O)[O-])c3=CC3=NC(=C4)C(C)=C3CCC(=O)[O-])=CC1=N2.[Na+].[Na+] [Example 111, Platinum Mesoporphyrin Disodium Salt]",6.15,0,
"C=CC1=C(C)c2cc3[n-]c(cc4nc(cc5[n-]c(cc1n2)c(C)c5CCC(=O)[O-])C(CCC(=O)[O-])=C4C)c(C)c3C=C.[In+3].[Na+].[Na+].[OH-] [Example 112, Indium Hydroxy Protoporphyrin Disodium Salt]",5.82,0,
"CC1=C(CCC(=O)[O-])c2cc3[n-]c(cc4nc(cc5[n-]c(cc1n2)c(CCC(=O)[O-])c5C)C(C)=C4CCC(=O)[O-])c(CCC(=O)[O-])c3C.[In+3].[Na+].[Na+].[Na+].[Na+].[OH-] [Example 113, Indium Hydroxy Coproporphyrin III Tetra Sodium Salt]",5.44,0,
CCC1=C(C)C2=Cc3c(CC)c(C)c4[n]3[Ga-2]35([Cl])[n]6c(c(C)c(CCCOCCOC)c6=CC6=[N+]3C(=C4)C(C)=C6CCCOCCOC)=CC1=[N+]25 [M=Ga R1=Et R3=Me R4=Et R2=CH2O(CH2)2OCH3],6.37,,
CCC1=C(C)C2=Cc3c(CC)c(C)c4[n]3[Ga-2]35([Cl])[n]6c(c(C)c(CCCOCCO)c6=CC6=[N+]3C(=C4)C(C)=C6CCCOCCO)=CC1=[N+]25 [M=Ga R1=Et R3=Me R4=Et R2=CH2O(CH2)2OH],6.30,,
"CCC1=C(CC)C2=[N+]3C1=Nc1c(CC)c(CC)c4[n]1[Ga-2]31([Cl])[n]3c(c(CC)c(CC)c3=C2c2ccc(OC)cc2)=NC2=[N+]1C(=C4c1ccc(OC)cc1)C(CC)=C2CC [M=Ga, R1=Et, R2=Et, R3=p-(C6H4)OCH3]",,,"pEC50 [1, 5]: 6.22"
"CCC1=C(CC)C2=[N+]3C1=Nc1c(CC)c(CC)c4[n]1[Pt-2]31[n]3c(c(CC)c(CC)c3=C2c2ccc(OC)cc2)=NC2=[N+]1C(=C4c1ccc(OC)cc1)C(CC)=C2CC (stereo not drawn) [M=Pt, R1=Et, R2=Et, R3=p-(C6H4)OCH3]",,,"pEC50 [1, 5]: 6.52"
"CCC1=C(C)c2cc3[nH]c(cc4nc(cc5[nH]c(cc1n2)c(C)c5CCC(=O)OC)C(CCC(=O)OC)=C4C)c(C)c3CC [mesoporphyrin dimethyl ester, reference compound]",,,efficacy of free base porphyrins in the arterial rat model [2]: poor efficacy
"CCC1=C(C)c2cc3[nH]c(cc4nc(cc5[nH]c(cc1n2)c(C)c5CC)C(C)=C4CCCC(=O)OC)c(CCCC(=O)OC)c3C [metal-free analog of compound 26, 8,13-diethyl-3,7,12,17-tetramethylporphyrin-2,18-di(butanoic acid methyl ester)]",,,efficacy of free base porphyrins in the arterial rat model [2]: poor efficacy
"CCOC(=O)CCCCC1=C(C)c2cc3[nH]c(cc4nc(cc5[nH]c(cc1n2)c(CCCCC(=O)OCC)c5C)C(CC)=C4C)c(CC)c3C [metal-free analog of compound 28, 8,13-diethyl-3,7,12,17-tetramethylporphyrin-2,18-di(pentanoic acid ethyl ester)]",,,efficacy of free base porphyrins in the arterial rat model [2]: poor efficacy
"Aluminum Chloride 8,13-diethyl-3,7,12,17-tetramethylporphyrin-2,18-di(butanoic acid methyl ester) [Example 48]",5.40,0,
"Gallium Chloride 3,7,14,17-tetramethyl-5,10-diazaporphyrin-2,8,12,18-tetra (3′-hydroxypropyl) [Example 118]",,,"pEC50 [1, 5]: 6.52"
"Gallium Chloride 3,7,14,17-tetramethyl-5,10-diazaporphyrin-2,8,12,18-tetra propionic acid [Example 117]",,,"pEC50 [1, 5]: 6.22"
"Gallium Chloride 7,8,12,13-tetraethyl-12,17-dimethyl-10-azaporphyrin-2,18-di(3′-hydroxypropyl) [Example 23]",,,"pEC50 [1, 4]: 7.30; Max % Rat Artery Accelularity ([2]; Table 4, drug dose 1 μMol, 575 nm (Pt 532 nm)): 50%"
"Gallium Chloride 7,8,12,13-tetraethyl-12,17-dimethyl-10-azaporphyrin-2,18-di(propionic acid-2′-N,N-dimethylaminoethyl amide) [Example 102]",,,"pEC50 [1, 4]: 5.92"
"Gallium Chloride 7,8,12,13-tetraethyl-12,17-dimethyl-10-azaporphyrin-2,18-di(propionic acid-3′-hydroxypropyl amide) [Example 97]",,,"pEC50 [1, 4]: 5.77"
"Gallium Chloride 8,13-diethyl-3,7,12,17-tetramethylporphyrin-2,18-di(butanoic acid methyl ester) [Example 26]",6.43,75,
"Platinum 3,7,14,17-tetramethyl-5,10-diazaporphyrin-2,8,12,18-tetra(3′-hydroxypropyl) [Example 120]",,,"pEC50 [1, 5]: 7.22"
"Platinum 3,7,14,17-tetramethyl-5,10-diazaporphyrin-2,8,12,18-tetra(propionic acid methyl ester [Example 119]",,,"pEC50 [1, 5]: 6.46"
"Zinc 8,13-diethyl-3,7,12,17-tetramethylporphyrin-2,18-di(butanoic acid methyl ester) [Example 49]",5.40,0,
